Results as given in patent US20260001914A1, “MACROCYCLIC PEPTIDES TARGETING KRAS” (Merck Sharp & Dohme LLC, priority 2022, published 2026).
*1 amine or outer side, *2 acyl side, *3 side chain or, on linkers, in order; H or OH if unused. Where a SMILES comes first, the peptide text is derived from it. Bridges are numbered along the chain shown (N, C = ends). [ ]: non-standard residue; d: D form. The star is where a group is joined. Phe(4-guanidino) = N=C(N)Nc1ccc(C[C@H](N)C(=O)O)cc1; X49 = O=C(O)Cc1cccc(C[C@H](N[*:1])C(=O)[*:2])c1; Ala(pyrimidin-5-yl) = N[C@@H](Cc1cncnc1)C(=O)O; NMe3Pal(6-Me) = CN[C@@H](Cc1ccc(C)nc1)C(=O)O; X6 = O=C([C@H](Cc1cnn(C2COC2)c1)N[*:1])[*:2]; NMePhe(3-Me) = CN[C@@H](Cc1cccc(C)c1)C(=O)O; Ethyl(2-pyrrolidin-1-yl) = C1CCN(CC*)C1; NMeAha = CN[C@@H](CCN=[N+]=[N-])C(=O)O; Nle(5,5-F2) = CC(F)(F)CC[C@H](N)C(=O)O; 1Nal = N[C@@H](Cc1cccc2ccccc12)C(=O)O; NHCH2CH2SCH2CO = O=C(CSCCN[*:1])[*:2]; Phe(2-F) = N[C@@H](Cc1ccccc1F)C(=O)O; X31 = O=C([C@H](CCC1CC1)N[*:1])[*:2]; NMe3Pal = CN[C@@H](Cc1cccnc1)C(=O)O; X1 = O=C(C12CC(CN[*:1])(C1)C2)[*:2]; NMeOrn(Me) = CNCCC[C@H](NC)C(=O)O; Ala(cPr) = N[C@@H](CC1CC1)C(=O)O; NMeF = CN[C@@H](Cc1ccccc1)C(=O)O; PhLac = O=C(O)[C@@H](O)Cc1ccccc1; 3Pal = N[C@@H](Cc1cccnc1)C(=O)O; X50 = CC(CCCC(=O)[*:2])N[*:1]; Ahp(2) = CCCCC[C@H](N)C(=O)O; Cba = N[C@@H](CC1CCC1)C(=O)O; hLeu = CC(C)CC[C@H](N)C(=O)O; NMeS = CN[C@@H](CO)C(=O)O; αMeC = C[C@](N)(CS)C(=O)O; NMeA = CN[C@@H](C)C(=O)O; Nle = CCCC[C@H](N)C(=O)O; AEEA = NCCOCCOCC(=O)O

Molecular target: KRAS-G12D protein (Homo sapiens, UniProt P01116, G12D)
Sequence (P01116 1-188 isoform P01116-2 G12D): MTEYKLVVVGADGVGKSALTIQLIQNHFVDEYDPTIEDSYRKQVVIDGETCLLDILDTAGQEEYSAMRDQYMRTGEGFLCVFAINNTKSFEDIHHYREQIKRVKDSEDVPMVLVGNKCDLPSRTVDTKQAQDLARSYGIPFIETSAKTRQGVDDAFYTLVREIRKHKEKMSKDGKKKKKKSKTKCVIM
Assay: SOS-mediated nucleotide exchange assay (BODIPY-GDP / Tb-streptavidin TR-FRET)
Format: biochemical

| Compound | EC50 [nM] |
| --- | --- |
| CCCCC[C@@H]1NC(=O)[C@H](Cc2ccc(OC)cc2)NC(=O)[C@H](CC2CCC2)NC(=O)[C@H](Cc2cncnc2)NC(=O)[C@H](CCCNC)N(C)C(=O)[C@H](Cc2ccccc2)NC(=O)CSC[C@@](C)(C(N)=O)NC(=O)[C@H](Cc2ccc(C)nc2)N(C)C1=O [compound 394, cyclo(F-NMeOmMe-PyrimAla-cBuA-TyrOMe-Ahp-NMe3Pal4Me-aMeCl-ClAc)] ({CH2CO}-F[NMeOrn(Me)][Ala(pyrimidin-5-yl)][Cba]Y(Me)[Ahp(2)][NMe3Pal(6-Me)][αMeC]-NH2; thioether N-8) | 65.8 |
| CCCC[C@@H]1NC(=O)[C@H](CCCCN)NC(=O)[C@H](CCCNC(=N)N)NC(=O)[C@H](Cc2cccc3ccccc23)NC(=O)CSCCNC(=O)[C@H](Cc2ccccc2)N(C)C(=O)[C@H](CCCC)NC(=O)[C@H](Cc2cccc(CC(=O)O)c2)NC1=O [compound 196, cyclo(INal-R-K-Nle-Phe3AcOH-Nle-NMeF-Cysteamine-ClAc)] (cyclo([1Nal]RK[Nle][X49][Nle][NMeF][NHCH2CH2SCH2CO])) | 2650 |
| CC(C)CC[C@@H]1NC(=O)[C@H](Cc2ccccc2F)NC(=O)[C@H](CC2CC2)NC(=O)[C@H](Cc2cnn(C3COC3)c2)NC(=O)[C@H](C)N(C)C(=O)[C@H](Cc2ccccc2)OC(=O)C23CC(CNC(=O)[C@H](Cc4cccnc4)N(C)C1=O)(C2)C3 [compound 301, cyclo(FLac-NMeA-AlaPyz1Ox-cPrA-Phe2F-hL-NMe3Pal-amBCP)] (cyclo([Ala(cPr)][Phe(2-F)][hLeu][NMe3Pal][X1][PhLac][NMeA][X6])) | 2.17 |
| C[C@H]1C(=O)N[C@@H](Cc2cnn(C3COC3)c2)C(=O)N[C@@H](CC2CC2)C(=O)N[C@@H](Cc2ccccc2F)C(=O)N[C@@H](CCC(C)(F)F)C(=O)N(C)[C@@H](Cc2ccccc2)C(=O)NCC23CC(C2)(C3)C(=O)O[C@@H](Cc2ccccc2)C(=O)N1C [compound 291, cyclo(FLac-NMcA-AlaPyzlOx-cPrA-Phe2F-Nle3F2-NMeF-amBCP)] (cyclo([Ala(cPr)][Phe(2-F)][Nle(5,5-F2)][NMeF][X1][PhLac][NMeA][X6])) | 1 |
| CCCCC[C@@H]1NC(=O)[C@H](Cc2ccc(OC)cc2)NC(=O)[C@H](CC2CCC2)NC(=O)[C@H](Cc2ccc(OCCN3CCCC3)cc2)NC(=O)[C@H](CCCNC(=N)N)NC(=O)[C@H](Cc2ccccc2)NC(=O)CSC[C@@](C)(C(N)=O)NC(=O)[C@H](Cc2ccccc2)N(C)C1=O [compound 383, cyclo(F-R-TyrOEtPyr-cBuA-TyrOMe-Ahp-NMeF-aMeCl-ClAc)] ({CH2CO}-FRY(Ethyl(2-pyrrolidin-1-yl))[Cba]Y(Me)[Ahp(2)][NMeF][αMeC]-NH2; thioether N-8) | 9.79 |
| CCCC[C@@H]1NC(=O)[C@H](Cc2ccc(O)cc2)NC(=O)[C@H](CC(C)C)NC(=O)[C@H](Cc2ccc(NC(=N)N)cc2)NC(=O)[C@H](CCCNC(=N)N)NC(=O)[C@H](Cc2ccccc2)NC(=O)CSC[C@@H](C(N)=O)NC(=O)[C@H](Cc2ccccc2)N(C)C1=O [compound 45, cyclo(F-R-Phe4Gn-L-Y-Nle-NMeF-Cl-ClAc)] ({CH2CO}-FR[Phe(4-guanidino)]LY[Nle][NMeF]C-NH2; thioether N-8) | 12.6 |
| CCCCC[C@@H]1NC(=O)[C@H](Cc2ccc(O)cc2)NC(=O)[C@H](CC(C)C)NC(=O)[C@H](Cc2ccc(O)cc2)NC(=O)[C@H](CCCNC(=N)N)NC(=O)[C@H](Cc2ccccc2)NC(=O)CSC[C@@H](C(=O)NCCOCCOCC(=O)NCCOCCOCC(N)=O)NC(=O)[C@H](Cc2ccccc2)N(C)C1=O [compound 58, cyclo(F-R-Y-L-Y-Ahp-NMeF-C4-ClAc)] ({CH2CO}-FRYLY[Ahp(2)][NMeF]C[AEEA][AEEA]-NH2; thioether N-8) | 436 |
| CCCC[C@@H]1NC(=O)[C@H](Cc2ccc(NC(=N)N)cc2)NC(=O)[C@H](CCCNC(=N)N)NC(=O)[C@H](Cc2cccc3ccccc23)NC(=O)CNC(=O)[C@@H](C)NC(=O)[C@H](Cc2ccccc2)N(C)C(=O)[C@H](CCCC)NC(=O)[C@H](Cc2ccc(O)cc2)NC1=O [compound 200, cyclo(1Nal-R-Phe4Gn-Nle-Y-Nle-NMeF-dA-G)] (cyclo([1Nal]R[Phe(4-guanidino)][Nle]Y[Nle][NMeF][dA]G)) | 52.9 |
| CCCC[C@@H]1NC(=O)[C@H](Cc2cccnc2)NC(=O)[C@H](CCN=[N+]=[N-])N(C)C(=O)[C@H](Cc2ccccc2)OC(=O)C23CC(CNC(=O)[C@H](Cc4cccnc4)N(C)C(=O)[C@H](CCCC)NC(=O)[C@H](Cc4ccccc4F)NC1=O)(C2)C3 [compound 249, cyclo(FLac-NMeDabN3-3Pal-Nle-Phe2F-Nle-NMe3Pal-amBCP)] (cyclo([3Pal][Nle][Phe(2-F)][Nle][NMe3Pal][X1][PhLac][NMeAha])) | 87.6 |
| CCCCC[C@@H]1NC(=O)[C@H](Cc2ccc(OC)cc2)NC(=O)[C@H](CC2CCC2)NC(=O)[C@H](Cc2cccnc2)NC(=O)[C@H](CCCNC(=N)N)NC(=O)[C@H](Cc2ccccc2F)NC(=O)CSC[C@@](C)(C(N)=O)NC(=O)[C@H](Cc2ccccc2)N(C)C1=O [compound 370, cyclo(Phe2F-R-3Pal-cBuA-TyrOMe-Ahp-NMeF-aMeCl-ClAc)] | 14.9 |
| CCCC[C@@H]1NC(=O)[C@H](Cc2cccnc2)NC(=O)[C@H](COC)N(C)C(=O)[C@H](Cc2ccccc2)OC(=O)C23CC(CNC(=O)[C@H](Cc4cccnc4)N(C)C(=O)[C@H](CCCC)NC(=O)[C@H](Cc4ccccc4F)NC1=O)(C2)C3 [compound 255, cyclo(FLac-nMeSMe-3Pal-Nle-Phe2F-Nle-NMe3Pal-amBCP)] (cyclo([3Pal][Nle][Phe(2-F)][Nle][NMe3Pal][X1][PhLac][NMeS](Me))) | 6410 |
| CCCC[C@@H]1NC(=O)[C@H](Cc2ccc(NC(=N)N)cc2)NC(=O)[C@H](CCCNC(=N)N)NC(=O)[C@H](Cc2ccccc2)NC(=O)CCCC(C)NC(=O)[C@H](Cc2ccccc2)N(C)C(=O)[C@H](CCCC)NC(=O)[C@H](Cc2ccc(OC)cc2)NC1=O (stereo partly drawn) [compound 93, cyclo(F-R-Phe4Gn-Nle-TyrOMe-Nle-NMeF-SamHex)] (cyclo(FR[Phe(4-guanidino)][Nle]Y(Me)[Nle][NMeF][X50])) | 142 |
| CCCC[C@@H]1NC(=O)[C@H](Cc2cncnc2)NC(=O)[C@H](C)N(C)C(=O)[C@H](Cc2ccccc2)OC(=O)C23CC(CNC(=O)[C@H](Cc4ccccc4)N(C)C(=O)[C@H](CCCC)NC(=O)[C@H](Cc4ccccc4F)NC1=O)(C2)C3 [compound 230, cyclo(FLac-NMeA-PyrimAla-Nle-Phe2F-Nle-NMeF-amBCP)] (cyclo([NMeA][Ala(pyrimidin-5-yl)][Nle][Phe(2-F)][Nle][NMeF][X1][PhLac])) | 17.4 |
| Cc1cccc(C[C@H]2C(=O)NCC34CC(C3)(C4)C(=O)O[C@@H](Cc3ccccc3)C(=O)N(C)[C@@H](C)C(=O)N[C@@H](Cc3cncnc3)C(=O)N[C@@H](CC3CC3)C(=O)N[C@@H](Cc3ccccc3F)C(=O)N[C@@H](CCC3CC3)C(=O)N2C)c1 [compound 334, cyclo(FLac-NMeA-PyrimAla-cPrA-Phe2F-hcPrA-NMePhe3Me-amBCP)] (cyclo([Ala(cPr)][Phe(2-F)][X31][NMePhe(3-Me)][X1][PhLac][NMeA][Ala(pyrimidin-5-yl)])) | 2 |
| CCCCC[C@@H]1NC(=O)[C@H](Cc2ccc(OC)cc2)NC(=O)[C@H](CC2CCC2)NC(=O)[C@H](Cc2ccoc2)NC(=O)[C@H](CCCNC(=N)N)NC(=O)[C@H](Cc2ccccc2)NC(=O)CSC[C@@](C)(C(N)=O)NC(=O)[C@H](Cc2ccccc2)N(C)C1=O [compound 371, cyclo(F-R-Ala3Fur-cBuA-TyrOMe-Ahp-NMeF-aMeCl-ClAc)] | 82.6 |
